According to patent US8642601B2, “Inhibitors of JNK” (Roche Palo Alto LLC, priority 2010, dated 2014):
pIC50: −log10 of the molar value. Where a name gives a salt, the structure may show the parent alone.

How the values were obtained:
JNK = test system: T1, JNK; assay: JNK Assay in vitro (phosphorylation of GST-ATF2 (19-96) with [γ-33P] ATP); assay type: biochemical; conditions: JNK isoform not stated for Table 1 (method describes human JNK1α1, JNK2α2, JNK3); Km concentrations of ATP and substrate
T1 construct: Human JNK2α2 assay contains 1 nM enzyme; Human JNK1α1 assay contains 2 nM enzyme
Experimental: JNK activity was measured by phosphorylation of GST-ATF2 (19-96) with [γ-^33P] ATP. The enzyme reaction was conducted at Km concentrations of ATP and the substrate at final volume of 40 μl in buffer containing 25 mM HEPES, pH 7.5, 2 mM dithiothreitol, 150 mM NaCl, 20 mM MgCl2, 0.001% Tween® 20, 0.1% BSA and 10% DMSO. Human JNK2α2 assay contains 1 nM enzyme, 1 μM ATF2, 8 μM ATP with 1 uCi [γ-^33P] ATP. Human JNK1α1 assay contains 2 nM enzyme, 1 μM ATF2, 6 μM ATP with 1 μCi [γ-^33P] ATP. Human JNK3 (Upstate Biotech #14-501M) assay contains 2 nM enzyme, 1 μM ATF2, 4 μM ATP with 1 μCi [γ-^33P] ATP. The enzyme assay was carried out in the presence or absence of several compound concentrations. JNK and compound were pre-incubated for 10 min., followed by initiation of the enzymatic reaction by adding ATP and the substrate. The reaction mixture was incubated at 30° C. for 30 min. At the end of incubation, the reaction was terminated by transferring 25 μl of the reaction mixture to 150 μl of 10% glutathione Sepharose® slurry (Amersham #27-4574-01) containing 135 mM EDTA. The reaction product was captured on the affinity resin, and washed on a filtration plate (Millipore, MABVNOB50) with phosphate buffered saline for six times to remove free radionucleotide. The incorporation of ^33P into ATF2 was quantified on a microplate scintillation counter (Packard Topcount). Compound inhibition potency on JNK was measured by IC50 value generated from ten concentration inhibition curves fitted into the 3-parameter model: % inhibition=Maximum/(1+(IC50/[Inhibitor])^slope). Data were analyzed on Microsoft Excel for parameter estimation.

SMILES | melting point | pIC50 (JNK)
CCN1CC[C@H](NC(=O)[C@H]2CC[C@H](Nc3nccc(-n4ccc5c(OCCCS(C)(=O)=O)cccc54)n3)CC2)C1 (as salt: HCl) [Compound 13, 4-{4-[4-(3-Methanesulfonyl-propoxy)-indol-1-yl]-pyrimidin-2-ylamino}-cyclohexanecarboxylic acid ((S)-1-ethyl-pyrrolidin-3-yl)-amide] | 160 to 162 °C | 
CCN1CC[C@H](NC(=O)[C@H]2CC[C@H](Nc3nccc(-n4ccc5c(OCCCS(C)(=O)=O)cccc54)n3)CC2)C1 [Compound 13, 4-{4-[4-(3-Methanesulfonyl-propoxy)-indol-1-yl]-pyrimidin-2-ylamino}-cyclohexanecarboxylic acid ((S)-1-ethyl-pyrrolidin-3-yl)-amide] |  | 6.47
CCN1CCCC1CNC(=O)[C@H]1CC[C@H](Nc2nccc(-n3ccc4c(OCCCS(C)(=O)=O)cccc43)n2)CC1 (some centres unmarked) [Compound 20, 4-{4-[4-(3-Methanesulfonyl-propoxy)-indol-1-yl]-pyrimidin-2-ylamino}-cyclohexanecarboxylic acid (1-ethyl-pyrrolidin-2-ylmethyl)-amide] |  | 7.09
CCN1CCC[C@@H]1CNC(=O)[C@H]1CC[C@H](Nc2nccc(-n3ccc4c(OCCCS(C)(=O)=O)cccc43)n2)CC1 [Compound 31, 4-{4-[4-(3-Methanesulfonyl-propoxy)-indol-1-yl]-pyrimidin-2-ylamino}-cyclohexanecarboxylic acid ((R)-1-ethyl-pyrrolidin-2-ylmethyl)-amide] |  | 7.01
CC1(C)CN(C(=O)[C@H]2CC[C@H](Nc3nccc(-n4ccc5c(OCC6CCS(=O)(=O)C6)cccc54)n3)CC2)CCN1 (some centres unmarked) (as salt: HCl) [Compound 28, (3,3-Dimethyl-piperazin-1-yl)-(4-{4-[4-(1,1-dioxo-tetrahydro-1λ^6-thiophen-3-ylmethoxy)-indol-1-yl]-pyrimidin-2-ylamino}-cyclohexyl)-methanone] | > 300 °C | 
CCCN1CC[C@@H](NC(=O)[C@H]2CC[C@H](Nc3nccc(-n4ccc5c(OCCCS(C)(=O)=O)cccc54)n3)CC2)C1 [Compound 11, 4{4-[4-(3-Methanesulfonyl-propoxy)-indol-1-yl]-pyrimidin-2-ylamino}-cyclohexanecarboxylic acid ((R)-1-propyl-pyrrolidin-3-yl)-amide] |  | 6.78
CCN1CCC[C@H]1CNC(=O)[C@H]1CC[C@H](Nc2nccc(-n3ccc4c(OCCCS(C)(=O)=O)cccc43)n2)CC1 [Compound 30, 4-{4-[4-(3-Methanesulfonyl-propoxy)-indol-1-yl]-pyrimidin-2-ylamino}-cyclohexanecarboxylic acid ((S)-1-ethyl-pyrrolidin-2-ylmethyl)-amide] |  | 7.07
C[C@H]1CN(C(=O)[C@H]2CC[C@H](Nc3nccc(-n4ncc5c(OCC6CCS(=O)(=O)C6)cccc54)n3)CC2)CCN1 (stereo partly drawn) (as salt: HCl) [Compound 25, (4-{4-[4-(1,1-Dioxo-tetrahydro-1λ^6-thiophen-3-ylmethoxy)-indazol-1-yl]-pyrimidin-2-ylamino}-cyclohexyl)-((S)-3-methyl-piperazin-1-yl)-methanone] | 245 to 250 °C | 
CCCN1CCC[C@H](NC(=O)[C@H]2CC[C@H](Nc3nccc(-n4ccc5c(OCCCS(C)(=O)=O)cccc54)n3)CC2)C1 (stereo in doubt) (as salt: HCl) [Compound 14, 4-{4-[4-(3-Methanesulfonyl-propoxy)-indol-1-yl]-pyrimidin-2-ylamino}-cyclohexanecarboxylic acid ((R)-1-propyl-piperidin-3-yl)-amide] | 185 to 190 °C | 
CCCN1CCC[C@H](NC(=O)[C@H]2CC[C@H](Nc3nccc(-n4ccc5c(OCCCS(C)(=O)=O)cccc54)n3)CC2)C1 (stereo in doubt) [Compound 14, 4-{4-[4-(3-Methanesulfonyl-propoxy)-indol-1-yl]-pyrimidin-2-ylamino}-cyclohexanecarboxylic acid ((R)-1-propyl-piperidin-3-yl)-amide] |  | 7.05
CCN1CCC[C@@H](NC(=O)[C@H]2CC[C@H](Nc3nccc(-n4ccc5c(OCCCS(C)(=O)=O)cccc54)n3)CC2)C1 (stereo in doubt) [Compound 17, 4-{4-[4-(3-Methanesulfonyl-propoxy)-indol-1-yl]-pyrimidin-2-ylamino}-cyclohexanecarboxylic acid ((S)-1-ethyl-piperidin-3-yl)-amide] |  | 6.94
CS(=O)(=O)CCCOc1cccc2c1ccn2-c1ccnc(N[C@H]2CC[C@H](C(=O)N3C[C@@H]4C[C@@H]3CN4)CC2)n1 [Compound 21, (1R,4S)-2,5-Diaza-bicyclo[2.2.1]hept-2-yl-(4-{4-[4-(3-methanesulfonyl-propoxy)-indol-1-yl]-pyrimidin-2-ylamino}-cyclohexyl)-methanone] |  | 6.84
C[C@@H]1CN(C(=O)[C@H]2CC[C@H](Nc3nccc(-n4ncc5c(OCCCS(C)(=O)=O)cccc54)n3)CC2)CCN1 [Compound 24, (4-{4-[4-(3-Methanesulfonyl-propoxy)-indazol-1-yl]-pyrimidin-2-ylamino}-cyclohexyl)-((R)-3-methyl-piperazin-1-yl)-methanone] |  | 7.22
C[C@H]1CN(C(=O)[C@H]2CC[C@H](Nc3nccc(-n4ncc5c(OCC6CCS(=O)(=O)C6)cccc54)n3)CC2)CCN1 (stereo partly drawn) [Compound 27, (4-{4-[4-(1,1-Dioxo-tetrahydro-1λ^6-thiophen-3-ylmethoxy)-indazol-1-yl]-pyrimidin-2-ylamino}-cyclohexyl)-((S)-3-methyl-piperazin-1-yl)-methanone] |  | 7.22
C[C@H]1CN(C(=O)[C@H]2CC[C@H](Nc3nccc(-n4ncc5c(OCC6CCS(=O)(=O)C6)cccc54)n3)CC2)CCN1 (stereo partly drawn) [Compound 25, (4-{4-[4-(1,1-Dioxo-tetrahydro-1λ^6-thiophen-3-ylmethoxy)-indazol-1-yl]-pyrimidin-2-ylamino}-cyclohexyl)-((S)-3-methyl-piperazin-1-yl)-methanone] |  | 7.34
CCN1CCN(C(=O)[C@H]2CC[C@H](Nc3nccc(-n4ccc5c(OCC6CCS(=O)(=O)C6)cccc54)n3)CC2)C[C@H]1C (stereo partly drawn) [Compound 3, (4-{4-[4-(1,1-Dioxo-tetrahydro-1λ^6-thiophen-3-ylmethoxy)-indol-1-yl]-pyrimidin-2-ylamino}-cyclohexyl)-((R)-4-ethyl-3-methyl-piperazin-1-yl)-methanone] |  | 7.34
CN(CC1CCCCN1C)C(=O)[C@H]1CC[C@H](Nc2nccc(-n3ccc4c(OCCCS(C)(=O)=O)cccc43)n2)CC1 (some centres unmarked) [Compound 19, 4-{4-[4-(3-Methanesulfonyl-propoxy)-indol-1-yl]-pyrimidin-2-ylamino}-cyclohexanecarboxylic acid methyl-(1-methyl-piperidin-2-ylmethyl)-amide] |  | 7.10
CC1(C)CN(C(=O)[C@H]2CC[C@H](Nc3nccc(-n4ccc5c(OCC6CCS(=O)(=O)C6)cccc54)n3)CC2)CCN1 (some centres unmarked) [Compound 28, (3,3-Dimethyl-piperazin-1-yl)-(4-{4-[4-(1,1-dioxo-tetrahydro-1λ^6-thiophen-3-ylmethoxy)-indol-1-yl]-pyrimidin-2-ylamino}-cyclohexyl)-methanone] |  | 7.01
CCN1CCCC(NC(=O)[C@H]2CC[C@H](Nc3nccc(-n4ccc5c(OCC6CCS(=O)(=O)C6)cccc54)n3)CC2)C1 (some centres unmarked) [Compound 29, 4-{4-[4-(1,1-Dioxo-tetrahydro-1λ^6-thiophen-3-ylmethoxy)-indol-1-yl]-pyrimidin-2-ylamino}-cyclohexanecarboxylic acid (1-ethyl-piperidin-3-yl)-amide] |  | 7.03
CCN1CCN(C(=O)[C@H]2CC[C@H](Nc3nccc(-n4ccc5c(OCC6CCS(=O)(=O)C6)cccc54)n3)CC2)C[C@@H]1C (stereo partly drawn) [Compound 9, (4-{4-[4-(1,1-Dioxo-tetrahydro-1λ^6-thiophen-3-ylmethoxy)-indol-1-yl]-pyrimidin-2-ylamino}-cyclohexyl)-((S)-4-ethyl-3-methyl-piperazin-1-yl)-methanone] |  | 7.71
CCOC1CC2CCC(C1)N2C(=O)[C@H]1CC[C@H](Nc2nccc(-n3ccc4c(OCCCS(C)(=O)=O)cccc43)n2)CC1 (some centres unmarked) [Compound 26, (3-Ethoxy-8-aza-bicyclo[3.2.1]oct-8-yl)-(4-{4-[4-(3-methanesulfonyl-propoxy)-indol-1-yl]-pyrimidin-2-ylamino}-cyclohexyl)-methanone; compound with formic acid] |  | 7.05
CN1C2CCC1CN(C(=O)[C@H]1CC[C@H](Nc3nccc(-n4ccc5c(OCCCS(C)(=O)=O)cccc54)n3)CC1)C2 [Compound 22] |  | 7.00
CCOC(=O)[C@@H]1CCCN(C(=O)[C@H]2CC[C@H](Nc3nccc(-n4ccc5c(OCCCS(C)(=O)=O)cccc54)n3)CC2)C1 [Compound 2, (R)-1-(4-{4-[4-(3-Methanesulfonyl-propoxy)-indol-1-yl]-pyrimidin-2-ylamino}-cyclohexanecarbonyl)-piperidine-3-carboxylic acid ethyl ester] |  | 7.13
